The values that follow come from US9422293B2 (priority 2006, dated 2016).

The structures appear in SMILES notation. Where a name gives a salt, the structure may show the parent alone.

Sequence of rat TRPV1 (O35433 whole entry): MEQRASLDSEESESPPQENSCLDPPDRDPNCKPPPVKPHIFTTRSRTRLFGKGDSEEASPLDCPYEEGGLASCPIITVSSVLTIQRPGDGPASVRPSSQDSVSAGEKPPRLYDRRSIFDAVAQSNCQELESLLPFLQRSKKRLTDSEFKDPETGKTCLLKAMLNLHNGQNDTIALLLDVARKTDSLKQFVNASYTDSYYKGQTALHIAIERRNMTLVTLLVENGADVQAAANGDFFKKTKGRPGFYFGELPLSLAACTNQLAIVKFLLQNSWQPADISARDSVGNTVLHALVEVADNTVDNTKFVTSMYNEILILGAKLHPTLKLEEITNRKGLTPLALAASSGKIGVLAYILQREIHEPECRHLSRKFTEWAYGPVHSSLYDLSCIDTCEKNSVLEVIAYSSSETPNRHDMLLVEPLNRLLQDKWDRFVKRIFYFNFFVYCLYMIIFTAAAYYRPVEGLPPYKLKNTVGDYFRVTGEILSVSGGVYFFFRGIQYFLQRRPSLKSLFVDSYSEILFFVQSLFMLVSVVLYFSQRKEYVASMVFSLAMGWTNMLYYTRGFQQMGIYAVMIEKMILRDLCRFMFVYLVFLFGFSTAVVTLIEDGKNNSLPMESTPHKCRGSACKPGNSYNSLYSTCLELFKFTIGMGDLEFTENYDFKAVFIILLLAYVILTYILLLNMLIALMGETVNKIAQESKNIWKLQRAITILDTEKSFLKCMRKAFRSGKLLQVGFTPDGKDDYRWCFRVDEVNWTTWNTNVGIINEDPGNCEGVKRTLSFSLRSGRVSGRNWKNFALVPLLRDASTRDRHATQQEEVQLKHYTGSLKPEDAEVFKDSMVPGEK

The assay concerns the target rat TRPV1 (Rattus norvegicus (Rat), UniProt O35433). The settings on record: read-out: Rat IC50.
As usually defined, the IC50 is the concentration that inhibits the measured activity by half. With `CC(C)c1nc2c(c(Nc3ccc(SC(F)(F)F)cc3)n1)CCN(c1ncccc1C(F)(F)F)CC2` [Example 104, [2-Isopropyl-7-(3-trifluoromethyl-pyridin-2-yl)-6,7,8,9-tetrahydro-5H-pyrimido[4,5-d]azepin-4-yl]-(4-trifluoromethylsulfanyl-phenyl)-amine], the concentration for half-maximal inhibition (IC50) was determined as 0.32 µM.

As for `FC(F)(F)c1ccc(Nc2nc(N3CCCC3)nc3c2CCN(c2ncccc2C(F)(F)F)CC3)cc1` [Example 106, [2-Pyrrolidin-1-yl-7-(3-trifluoromethyl-pyridin-2-yl)-6,7,8,9-tetrahydro-5H-pyrimido[4,5-d]azepin-4-yl]-(4-trifluoromethyl-phenyl)-amine], the IC50 amounted to 0.062 µM.

With `CC(C)c1nc2c(c(NCCc3ccc(Cl)c(Cl)c3)n1)CCN(c1ncccc1C(F)(F)F)CC2` [Example 108, [2-(3,4-Dichloro-phenyl)-ethyl]-[2-isopropyl-7-(3-trifluoromethyl-pyridin-2-yl)-6,7,8,9-tetrahydro-5H-pyrimido[4,5-d]azepin-4-yl]-amine], the IC50 is 0.94 µM. The figure for `CC(C)c1nc2c(c(Nc3ccc(Cl)c(Cl)c3)n1)CCN(c1ncccc1C(F)(F)F)CC2` [Example 109, (3,4-Dichloro-phenyl)-[2-isopropyl-7-(3-trifluoromethyl-pyridin-2-yl)-6,7,8,9-tetrahydro-5H-pyrimido[4,5-d]azepin-4-yl]-amine] is 0.58 µM; for `CC(C)c1nc2c(c(NCc3ccc(Cl)c(C(F)(F)F)c3)n1)CCN(c1ncccc1C(F)(F)F)CC2` [Example 115, N-{[4-Chloro-3-(trifluoromethyl)phenyl]methyl}-2-(1-methylethyl)-7-[3-(trifluoromethyl)pyridin-2-yl]-6,7,8,9-tetrahydro-5H-pyrimido[4,5-d]azepin-4-amine] it is 3.79 µM. Take `CC(C)c1nc2c(c(NCc3ccc(C(F)(F)F)nc3)n1)CCN(c1ncccc1C(F)(F)F)CC2` [Example 116, 2-(1-Methylethyl)-7-[3-(trifluoromethyl)pyridin-2-yl]-N-{[6-(trifluoromethyl)pyridin-3-yl]methyl}-6,7,8,9-tetrahydro-5H-pyrimido[4,5-d]azepin-4-amine]: the IC50 is 7.03 µM.

Turning to `CC(C)c1nc2c(c(NCc3ccc(C(F)(F)F)cc3)n1)CCN(c1ncccc1C(F)(F)F)CC2` [Example 117, 2-(1-Methylethyl)-N-{[4-(trifluoromethyl)phenyl]methyl}-7-[3-(trifluoromethyl)pyridin-2-yl]-6,7,8,9-tetrahydro-5H-pyrimido[4,5-d]azepin-4-amine], the IC50 is 13.5 µM.

In the case of `CC(C)c1nc2c(c(NCCc3ccccc3F)n1)CCN(c1ncccc1C(F)(F)F)CC2` [Example 118, N-[2-(2-Fluorophenyl)ethyl]-2-(1-methylethyl)-7-[3-(trifluoromethyl)pyridin-2-yl]-6,7,8,9-tetrahydro-5H-pyrimido[4,5-d]azepin-4-amine], the IC50 was determined as 0.5 µM. Then `CC(C)c1nc2c(c(NCCc3ccccc3Br)n1)CCN(c1ncccc1C(F)(F)F)CC2` [Example 119, N-[2-(2-Bromophenyl)ethyl]-2-(1-methylethyl)-7-[3-(trifluoromethyl)pyridin-2-yl]-6,7,8,9-tetrahydro-5H-pyrimido[4,5-d]azepin-4-amine], with 1.22 µM; and `CC(C)c1nc2c(c(NCc3c(Cl)cccc3Cl)n1)CCN(c1ncccc1C(F)(F)F)CC2` [Example 120, N-[(2,6-Dichlorophenyl)methyl]-2-(1-methylethyl)-7-[3-(trifluoromethyl)pyridin-2-yl]-6,7,8,9-tetrahydro-5H-pyrimido[4,5-d]azepin-4-amine], with 12.1 µM. Then `CC(C)c1nc2c(c(NC3CCC(C(C)(C)C)CC3)n1)CCN(c1ncccc1C(F)(F)F)CC2` (stereo not shown) [Example 122, N-[4-(1,1-Dimethylethyl)cyclohexyl]-2-(1-methylethyl)-7-[3-(trifluoromethyl)pyridin-2-yl]-6,7,8,9-tetrahydro-5H-pyrimido[4,5-d]azepin-4-amine], with 0.19 µM; and `CC(C)c1nc2c(c(NCCc3ccc(Cl)cc3)n1)CCN(c1ncccc1C(F)(F)F)CC2` [Example 124, N-[2-(4-Chlorophenyl)ethyl]-2-(1-methylethyl)-7-[3-(trifluoromethyl)pyridin-2-yl]-6,7,8,9-tetrahydro-5H-pyrimido[4,5-d]azepin-4-amine], with 0.57 µM. Then `CC(C)c1nc2c(c(NCCc3c(Cl)cccc3Cl)n1)CCN(c1ncccc1C(F)(F)F)CC2` [Example 125, N-[2-(2,6-Dichlorophenyl)ethyl]-2-(1-methylethyl)-7-[3-(trifluoromethyl)pyridin-2-yl]-6,7,8,9-tetrahydro-5H-pyrimido[4,5-d]azepin-4-amine], with 0.61 µM; and `COc1ccccc1CCNc1nc(C(C)C)nc2c1CCN(c1ncccc1C(F)(F)F)CC2` [Example 126, 2-(1-Methylethyl)-N-{2-[2-(methyloxy)phenyl]ethyl}-7-[3-(trifluoromethyl)pyridin-2-yl]-6,7,8,9-tetrahydro-5H-pyrimido[4,5-d]azepin-4-amine], with 1.19 µM.

Regarding `CC(C)c1nc2c(c(Nc3ccc(C(=O)N(C)C)cc3)n1)CCN(c1ncccc1C(F)(F)F)CC2` [Example 127, N,N-Dimethyl-4-({2-(1-methylethyl)-7-[3-(trifluoromethyl)pyridin-2-yl]-6,7,8,9-tetrahydro-5H-pyrimido[4,5-d]azepin-4-yl}amino)benzamide], the concentration for half-maximal inhibition (IC50) stood at 19.2 µM. The figure for `CC(C)c1nc2c(c(Nc3ccc(C(F)(F)F)c(Cl)c3)n1)CCN(c1ncccc1C(F)(F)F)CC2` [Example 128, N-[3-Chloro-4-(trifluoromethyl)phenyl]-2-(1-methylethyl)-7-[3-(trifluoromethyl)pyridin-2-yl]-6,7,8,9-tetrahydro-5H-pyrimido[4,5-d]azepin-4-amine] is 0.15 µM; for `CC(C)c1nc2c(c(Nc3ccc(C(C)(C)C#N)cc3)n1)CCN(c1ncccc1C(F)(F)F)CC2` [Example 129, 2-Methyl-2-[4-({2-(1-methylethyl)-7-[3-(trifluoromethyl)pyridin-2-yl]-6,7,8,9-tetrahydro-5H-pyrimido[4,5-d]azepin-4-yl}amino)phenyl]propanenitrile] it is 0.23 µM. The figure for `CC(C)c1nc2c(c(Nc3ccc([N+](=O)[O-])cc3)n1)CCN(c1ncccc1C(F)(F)F)CC2` [Example 136, 2-(1-Methylethyl)-N-(4-nitrophenyl)-7-[3-(trifluoromethyl)pyridin-2-yl]-6,7,8,9-tetrahydro-5H-pyrimido[4,5-d]azepin-4-amine] is 0.11 µM; for `CC(C)c1ccc(Nc2nc(C(C)C)nc3c2CCN(c2ncccc2C(F)(F)F)CC3)cc1` [Example 137, 2-(1-Methylethyl)-N-[4-(1-methylethyl)phenyl]-7-[3-(trifluoromethyl)pyridin-2-yl]-6,7,8,9-tetrahydro-5H-pyrimido[4,5-d]azepin-4-amine] it is 0.06 µM; for `CC(C)c1nc2c(c(Nc3ccc(C(F)(F)F)c(F)c3)n1)CCN(c1ncccc1C(F)(F)F)CC2` [Example 140, N-[3-Fluoro-4-(trifluoromethyl)phenyl]-2-(1-methylethyl)-7-[3-(trifluoromethyl)pyridin-2-yl]-6,7,8,9-tetrahydro-5H-pyrimido[4,5-d]azepin-4-amine] it is 0.19 µM. On to `CC(C)c1nc2c(c(Nc3ccc4c(c3)CCC4)n1)CCN(c1ncccc1C(F)(F)F)CC2` [Example 141, N-(2,3-Dihydro-1H-inden-5-yl)-2-(1-methylethyl)-7-[3-(trifluoromethyl)pyridin-2-yl]-6,7,8,9-tetrahydro-5H-pyrimido[4,5-d]azepin-4-amine hydrochloride salt], for which the IC50 stood at 0.13 µM.

For `CC(C)c1nc2c(c(Nc3ccc(-c4cnco4)cc3)n1)CCN(c1ncccc1C(F)(F)F)CC2` [Example 142, 2-(1-Methylethyl)-N-[4-(1,3-oxazol-5-yl)phenyl]-7-[3-(trifluoromethyl)pyridin-2-yl]-6,7,8,9-tetrahydro-5H-pyrimido[4,5-d]azepin-4-amine], the IC50 was 2.09 µM. The figure for `CC(C)c1nc2c(c(Nc3ccc(C(C)(C)C)c([N+](=O)[O-])c3)n1)CCN(c1ncccc1C(F)(F)F)CC2` [Example 143, N-[4-(1,1-Dimethylethyl)-3-nitrophenyl]-2-(1-methylethyl)-7-[3-(trifluoromethyl)pyridin-2-yl]-6,7,8,9-tetrahydro-5H-pyrimido[4,5-d]azepin-4-amine] is 0.13 µM; for `FC(F)(F)c1ccc(Nc2nc(-c3ccco3)nc3c2CCN(c2ncccc2C(F)(F)F)CC3)cc1` [Example 144, 2-Furan-2-yl-N-[4-(trifluoromethyl)phenyl]-7-[3-(trifluoromethyl)pyridin-2-yl]-6,7,8,9-tetrahydro-5H-pyrimido[4,5-d]azepin-4-amine] it is 0.24 µM.

Consider `CC(C)(C)c1ccc(Nc2nc(-c3ccco3)nc3c2CCN(c2ncccc2C(F)(F)F)CC3)cc1` [Example 145, N-[4-(1,1-Dimethylethyl)phenyl]-2-furan-2-yl-7-[3-(trifluoromethyl)pyridin-2-yl]-6,7,8,9-tetrahydro-5H-pyrimido[4,5-d]azepin-4-amine], for which the IC50 came to 0.24 µM.

As to `FC(F)(F)c1ccc(Nc2nc(-c3ccoc3)nc3c2CCN(c2ncccc2C(F)(F)F)CC3)cc1` [Example 146, 2-Furan-3-yl-N-[4-(trifluoromethyl)phenyl]-7-[3-(trifluoromethyl)pyridin-2-yl]-6,7,8,9-tetrahydro-5H-pyrimido[4,5-d]azepin-4-amine], the IC50 was 0.72 µM. Then `CC(C)(C)c1ccc(Nc2nc(-c3ccoc3)nc3c2CCN(c2ncccc2C(F)(F)F)CC3)cc1` [Example 147, N-[4-(1,1-Dimethylethyl)phenyl]-2-furan-3-yl-7-[3-(trifluoromethyl)pyridin-2-yl]-6,7,8,9-tetrahydro-5H-pyrimido[4,5-d]azepin-4-amine], with 0.11 µM; and `CC(C)c1nc2c(c(Nc3ccc4nsnc4c3)n1)CCN(c1ncccc1C(F)(F)F)CC2` [Example 148, Benzo[1,2,5]thiadiazol-5-yl-[2-isopropyl-7-(3-trifluoromethyl-pyridin-yl)-6,7,8,9-tetrahydro-5H-pyrimido[4,5-d]azepin-4-yl]-amine], with 2.17 µM.
